Source: patent publication US20040259806A1 (priority 2001, published 2004)
Where two headings read alike, the source gives them in different places.

How the values were obtained:
tuberculosis = assay: SCV-07 in patients with destructive lung tuberculosis, 20 treated versus 15 control (Example 3); format: in vivo, human
Protocol: Patients with destructive lung tuberculosis, untreated previously or after inadequate antituberculosis therapy were treated. All patients received antituberculosis therapy consisting of intravenous isoniazid and four to five other drugs and the condition of each patient was examined daily. Major diagnostic criteria included physical examination, chest X-ray, sputum bacterioscopy and culture, broncho alveolar lavage examination. Also included were blood counts performed in all patients prior to SCV-07 therapy and then once per week. Blood biochemical tests including blood fibrinogen, β-lipoproteins, urea, creatinine, C-reactive protein levels, activity of alanine and asparagine transaminases were performed once per month and more frequently if needed. Sputum cultures were taken prior to therapy and one and three months after SCV-07 therapy, and serologic assays including indirect hemaglutination tests.
Bilateral lung injury was found in 11 patients. […] In all cases, the pathological process was destructive. […] Immature cavities were diagnosed in 3 cases. Multiple cavities, X-ray markers and exudative inflammation predominated in all patients.
Females slightly predominated the experimental group (55%). Patients ranged in age from 20 to 40 years of age. All patients had symptoms of toxemia, including 4 patients with severe symptoms.
Immunological studies included counting the percentage of peripheral blood lymphocyte subsets such as CD3+, CD4+, CD8+, CD20+, CD25+ and CD95+ using monoclonal antibodies. The CD4/CD8 index was calculated as well. Elevation of CD3+ and CD4+ cell levels were apparent in 7 out of 14 patients immediately after SCV-07 therapy.
Phytohemagglutinin (PHA) and purified protein derivate (PPD)-induced lymphocytes blasttransformation were also investigated.

M. bovis 8 = format: in vivo, mice
spleen cells = assay: Spleen cell proliferation (Con A, LPS, tuberculin) from treated infected mice; format: in vivo
Protocol: Spleens from mice were harvested aseptically, homogenized in RPMI-1640 medium (Biolot, Russia) and filtered through two layers of sterile gauze. Erythrocytes were lysed in 0.83% percent ammonium chloride solution after centrifugation of the homogenate. Spleen cells were washed twice with RPMI-1640 with 2 mM L-glutamine and […] gentamycin (Sigma, St. Louis, Mo.), then counted using a Goriaev hemocytometer.
Spleen cells and thymic cells were isolated as described above. In vitro, thymic cells were diluted to 10^7/ml in RPMI-1640 with 2 mM L-glutamine, 80 ìg/ml gentamycin and 4% heat-inactivated fetal calf serum (Sigma, St. Louis, Mo.). Spleen cells were diluted to 3×10^6/ml in RPMI-1640 with 2 mM L-glutamine, 80 ìg/ml gentamycin and 20% inactivated fetal calf serum. 0.5 ìg/ml Concanavalin A (Con A, Sigma, St. Louis, Mo.) was used to stimulate thymic cell proliferation. For spleen cell proliferation, 0.5 ìg/ml Con A, 10 ìg/ml lipopolysaccharide (Sigma, St. Louis, Mo.), and 50 ìg/ml tuberculin purified protein derivative (PPD) were utilized. The assay was carried out in 96-well plates and cell cultures were incubated for 72 hours, or 96 hours if tuberculin was used, at 37° C. in humidified 5% CO2, then pulsed with 5 ìl Ci/ml ^3H-thymidine overnight (approximately 16 h) and harvested on filters using a semi-automated harvester (Titertek™, Flow Laboratories, Norway). Filters were dried and proliferation calculated by ^3H-thymidine incorporation by counting samples in a liquid scintillation counter (LKB 1217 Racketa, Wallace, Sweden). Data was expressed in impulses per minute.

peritoneal macrophages = assay: Phagocytosis and killing of Saccharomyces cerevisiae by peritoneal macrophages of treated infected mice; format: in vivo
Protocol: In order to study phagocytosis, peritoneal macrophages were plated at a concentration of 10^6 cells per Petri dish and media including 10^7 Saccharomyces cerevisiae cells, opsonized by mice serum was added. Results were evaluated using the Mann-Whitney test. Phagocytic activity was calculated after determination of percentage of macrophages involved in phagocytes. The phagocytic index was determined by calculating the average number of yeast phagocytosed per one cell. Killing activity was resolved by the number of yeast digested by macrophages after 1.5 h of incubation. Finally, the killing index was determined as follows: [formula]

IL-2 = IL-2 production by Con A stimulated spleen cells (CTLL-2 assay); format: in vivo, mice
Protocol: In RPMI-1640, spleen cells were diluted to a concentration of 10^7/ml with 10% fetal calf serum, 2 mM L-glutamine and 80 ìg/ml gentamycin. A 100 ìl cell suspension was added to each well of a 96-well culture plate and cytokine production was induced by Con A at a final concentration of 2.5 ìg/ml. A control well included RPMI-1640. For 24 hours, cells were incubated at 37° C. and humidified in 5% CO2. Following incubation, […] of supernatant was removed from each well and stored at −70° C.
In order to determine the IL-2 concentration in cell culture supernatants, the CTLL-2 IL-2 dependent cell line was used. CTLL-IL-2 cells were washed twice in RPMI-1640 and counted with a Goriaev hemocytometer. Supernatants were diluted in 96-well culture plates at dilutions of 1:5, 1:15, 1:45 and 1:135 in a volume of 100 il. IL-2 standard dilutions were also prepared. Cells were diluted to 2×10^5/ml in RPMI-1640 with 10% inactivated fetal calf serum, 2 mM L-glutamine, 80 ìg/ml gentamycin. The 100 ìl suspension was added to each well of the culture plate and incubated for 48 h at 37° C. in 5% CO2 humidity. Ten ìl of 5 i Ci/ml ^3H-thymidine was added to each well 16 h before the end of incubation. Following incubation, the cells were harvested on filters through the use of a semi-automated harvester and samples were counted in a liquid scintillation counter.

[1] = 24 days after end of therapy, Group 7 (0.1 ìg/kg ip) versus Group 3 (isoniazid control)

Structure (SMILES): N[C@H](CCC(=O)N[C@@H](Cc1c[nH]c2ccccc12)C(=O)O)C(=O)O [SCV-07, γ-D-glutamyl-L-tryptophan]
- IL-2 production after stimulation with the mitogens PHA and PPD (tuberculosis; SCV-07 treated patients): greatly increased
- Cavity closure, patients (tuberculosis; after 3 months of observation, 13.3% in the control group): 25%
- Negative sputum culture tests, patients (tuberculosis; after 3 months, 33.3% in the control group): 65%
- Negative sputum culture tests, patients (tuberculosis; after a month of observation, 13.3% in the control group): 30%
- Serum bilirubin, creatinine, urea, alanine and asparagine transaminase (tuberculosis; during SCV-07 therapy): stabilized
- Hematological signs of tuberculosis activity including white blood cell counts and ESR (tuberculosis; experimental group): mostly diminished
- body temperature (tuberculosis; experimental group): decreased in all cases
- Moist rates resolved (tuberculosis; experimental group (20 patients)): 16 patients
- T-cell blasttransformation responses (PHA, PPD) (tuberculosis; experimental group compared with control group): markedly increased
- chest X-ray and tomogram (tuberculosis; following two months of SCV-07 therapy): resolution of the infiltrate-like shadow
- CD4+/CD8+ ratio (tuberculosis; immediately after SCV-07 therapy): increased
- Serum biochemical inflammation markers such as fibrinogen, β-lipoprotein, CRP (tuberculosis; in one month): decreased
- Elevation of CD3+ and CD4+ cell levels, patients (tuberculosis; out of 14 patients, immediately after SCV-07 therapy): 7 patients
- Toxemia symptoms substantially resolved (tuberculosis; within a month, experimental group (20 patients), with antituberculosis therapy): half of the patients
- M. bovis growth in spleen culture (M. bovis 8; 5 daily injections of 0.01 ìg/kg): decreases
- differences between the control and experimental groups (M. bovis 8; 10 days and 17 days after termination of treatment, groups other than Group 7): lacked significance
- growth of M bovis cultured from spleens (M. bovis 8; [1]): 200±0 CFU
- lung weight index (M. bovis 8; [1]): 1.38±0.06
- spleen weight index (M. bovis 8; [1]): 1.59±0.25
- increase in body weight (M. bovis 8; 24 days after end of therapy, Group 7 (SCV-07 0.1 ìg/kg ip, 5 injections, with isoniazid) versus Group 3 (isoniazid control)): 30.8%
- M. bovis growth in spleen cultures, significant decrease (M. bovis 8; Group 5 (1 ìg/kg ip, 5 injections), 24 days after treatment): this trend did not occur
- M. bovis growth in spleen cultures (M. bovis 8; Group 6 (1 ìg/kg ip, 10 injections), 24 days after treatment, 275±14.1 CFU in the control): 190±21.5 CFU
- lung damage index, difference to isoniazid control (Group 3) (M. bovis 8; Group 7 (0.1 ìg/kg ip), 4 days after therapy): Significant differences
- lung damage index (M. bovis 8; Group 7 (0.1 ìg/kg ip), 10 days and 17 days after termination of treatment): considerably differed from the control
- lung damage index, difference to untreated controls (Group 2) (M. bovis 8; Groups 5, 7, 8 and 9 (1, 0.1, 0.01 ìg/kg ip and 1 ìg/kg po), 4 days after therapy): significant differences
- lung damage index (M. bovis 8; all doses, 4 days after the end of 5 days of therapy (Day 28 of infection)): decreased
- spleen cell proliferative response with LPS (spleen cells; after 24 days, Group 6 (1 ìg/kg, 10 injections ip)): did not differ from uninfected mice
- spleen cell proliferative response with Con A (spleen cells; after 24 days, Groups 6 and 7 (1 ìg/kg, 10 injections ip and 0.1 ìg/kg ip)): did not differ from uninfected mice
- spleen cell proliferative response to tuberculin (spleen cells; later than 4 days of therapy, Group 6 (1 ìg/kg ip, 10 injections)): significantly higher than the control
- macrophage killing (peritoneal macrophages; 24 days after treatment, Groups 6 and 7 (1.0 ìg/kg, 10 injections and 0.1 ìg/kg ip)): significantly improved
- phagocytic activity (peritoneal macrophages; after 4 days, Group 7 (SCV-07 0.1 ìg/kg ip) compared to Group 3 (isoniazid control), p≦0.05, 64.2% in uninfected mice): 38.8%
- phagocytic index (peritoneal macrophages; after 4 days, SCV-07 treatment): normalized
- killing (peritoneal macrophages; after 4 days, SCV-07 versus control, p≦0.05): 244.4
- killing and the killing index (peritoneal macrophages; after 17 days, Group 6 (1.0 ìg/kg ip, 10 injections)): significantly increased
- phagocytic activity (peritoneal macrophages; after 17 days, Group 6 (1.0 ìg/kg ip, 10 injections) versus Group 3 (isoniazid control)): 60.4%
- phagocytic index (peritoneal macrophages; after 17 days, Group 6 (1.0 ìg/kg ip, 10 injections) versus Group 3, p=0.05): 6.88 U
- killing (peritoneal macrophages; ten days after therapy, Group 5 (1 ìg/kg, ip) compared to the control): significantly increased
- ingestion and killing (peritoneal macrophages; ten days after therapy, Groups 8 and 9 (0.01 ìg/kg ip and 1 ìg/kg po)): tendency toward decreased
- IL-2 production (IL-2; 4 days after therapy, Group 7 (0.1 ìg/kg ip) compared to Group 3 (isoniazid control), Con A stimulated spleen cells): 41.6±5.6 U/ml
- IL-2 level (IL-2; 24 days after therapy, Group 6 (1 ìg/kg ip, 10 injections) and Group 7 (0.1 ìg/kg ip)): did not differ from uninfected mice
- IL-2 production (IL-2; all treated groups, all time points after therapy): increase
